One experiment deals with 1D5 monoclonal antibody. The experiment in a line: Peptide ELISA of synthetic ER peptides with 1D5. The experiment is classed as binding, mouse. The following applies: compared among ER peptides 3, 4 and 6. An excerpt:
Three synthetic peptides (designated as ER peptide 3, ER peptide 4, and ER peptide 6), that are representative of above consensus phage sequence, were synthesized (by SynPep Labs, Dublin, Calif. and Bachem Labs, King of Prussia, Pa.) and tested for specificity/affinity to 1D5 monoclonal antibody.

The target in a further experiment is ER peptide mimic. The experiment in a line: immunostaining of ER peptide mimic spots on matrix, semi-quantitative colour score.

These results are taken from patent publication US20070141723A1, “Immunohistochemistry staining controls” (priority 2005, published 2007).

*: point of attachment. FITC = O=C1OC2(c3ccc(O)cc3Oc3cc(O)ccc32)c2ccc(NC(=S)*)cc21

As for “Ac-DFQCPYVECVVNAPGGK (FITC) GK-CONH2 (Ac-DFQCPYVECVVNAPGGK(FITC)GK-NH2; cysteine pairing not given here) [ER peptide 3]”, in the experiment with 1D5 monoclonal antibody, the “peptide ELISA signal” value was “highest signal”.
For “anti-human estrogen receptor mouse monoclonal antibody 1D5”, in the experiment with ER peptide mimic, the Staining intensity (1-4+) is 4 1-4+ scale.
